Test results reported in PMC9379334, “Determination of ceftriaxone in human plasma using liquid chromatography–tandem mass spectrometry” (Wellcome Open Research, 2022).
Where two headings read alike, the source gives them in different places.

Experiments:
[1] = Stability of extracted samples in the LC autosampler at 10°C; type: physicochemical, human
[2] = Stability of ceftriaxone in acidic (pH about 2) and neutral pH dilutions; conditions: +4°C
[3] = cited from earlier work
[4] = Stability of ceftriaxone in spiked human plasma under different storage conditions (LC-MS/MS); type: physicochemical; conditions: for Stability, Precipitated 4hrs in RT: protein precipitated; for Stability in plasma, F/T cycle 5 / Stability in plasma, F/T cycle 3: freeze -80°C/thaw RT; for Stability in plasma, RT 24 hrs / Stability in plasma, RT 48 hrs: RT about 23°C
Description: (§1) Stock solution 10 mg/ml was evaluated at -80°C and at +4°C for 5 days, and in room temperature (+24°C) for 8 hrs. The lowest concentration of working solution 50 µg/ml was also evaluated at -80°C for 5 days and at room temperature (24°C) for 5 hrs. Spiked plasma stored at ambient temperature and at 4°C for 48 h was used to evaluate short-term stability. Long-term stability of spiked samples at -80°C was evaluated after 7 months. Freeze-thaw stability was evaluated for plasma samples and haemolysed plasma samples for five cycles. The samples were stored at -80°C for 24 h followed by unassisted thawing at room temperature for 2–3 h and subsequent re-freezing at -80°C. The stability of precipitated samples stored at ambient temperature (about 23°C) for 4 h was also evaluated. The stability of extracted samples in the LC autosampler kept at 10°C was evaluated by re-injecting the calibrators and QC samples 65 h after initial injection. The acceptance criteria for stability was achieved when the RSD of stability samples was below ±15%, and the accuracy of mean concentrations was within ±15% of nominal concentration.
(§2) The stability samples were quantified using a calibration curve in CPD plasma. Stability samples in CPD plasma were compared to the average measured concentration of CPD QC samples added in the same run. The CPD calibration curve was also used to quantify heparin and EDTA stability samples due to limited supply of volunteer donor blood. However, since EDTA and heparin have different recovery from plasma compared to CPD, a direct comparison would be biased. Thus, stability samples were instead compared with the average measured concentration of the precision and accuracy of each anticoagulant.

[5] = cited from earlier work; remark: listed apart in the source
[6] = Stability of ceftriaxone stock and working solutions; conditions: for Stock solution stability: stock solution 10 mg/ml in water; for Working solution stability: weakest working solution 50 µg/ml
Description: as §1, §2

[7] = QC1, 2.97 µg/ml, CPD haemolysis plasma
[8] = QC1, 2.97 µg/ml, CPD plasma, vs average measured CPD QC concentration in same run
[9] = QC1, 2.97 µg/ml, EDTA plasma, vs average of four precision and accuracy batches
[10] = QC1, 2.97 µg/ml, EDTA plasma, vs average of four precision and accuracy batches for this anticoagulant
[11] = QC1, 2.97 µg/ml, Li-heparin plasma, vs average of four precision and accuracy batches
[12] = QC1, 2.97 µg/ml, Na-heparin haemolysis plasma
[13] = QC1, 2.97 µg/ml, Na-heparin plasma, vs average of four precision and accuracy batches
[14] = QC3, 155 µg/ml, CPD haemolysis plasma
[15] = QC3, 155 µg/ml, CPD plasma, vs average measured CPD QC concentration in same run
[16] = QC3, 155 µg/ml, EDTA plasma, vs average of four precision and accuracy batches
[17] = QC3, 155 µg/ml, Li-heparin plasma, vs average of four precision and accuracy batches
[18] = QC3, 155 µg/ml, Na-heparin haemolysis plasma
[19] = QC3, 155 µg/ml, Na-heparin plasma, vs average of four precision and accuracy batches

CO/N=C(\C(=O)N[C@@H]1C(=O)N2C(C(=O)O)=C(CSc3nc(=O)c(=O)[nH]n3C)CS[C@H]12)c1csc(N)n1 [ceftriaxone]
Variation in QC concentrations ([1]; extracted samples in LC autosampler 10°C up to 65 h, full set of calibrators and QC re-injected): less than 10% | Loss, original injection vs 65-h injection ([1]; extracted samples in LC autosampler 10°C, 65 h): about 20% | Degradation ([2]; 10 mM ammonium formate containing 2% formic acid (pH about 2), dark, 48 hrs): 95% | Remaining of initial concentration ([2]; ammonium formate 10 mM with 2% formic acid (pH about 2), 2 days (48 hrs)): 5% | Remaining of initial concentration ([2]; ammonium formate 10 mM with 2% formic acid (pH about 2), 3 days): less than 1% | Remaining of initial concentration ([2]; dilutions in solutions with neutral pH, 2 and 3 days): 95–100% | Mean plasma concentration 24 h after administration ([3]; 0.5-g intravenous dose): 5.3 µg/mL | Mean plasma concentration 24 h after administration ([3]; 1-g intravenous dose): 9.3 µg/mL | Mean plasma concentration 24 h after administration ([3]; 2-g intravenous dose): 15.1 µg/mL | Population mean peak levels ([3]; standard 2-g daily dose, critically ill patients with sepsis): below 200 μg/ml | Stability, Precipitated 4hrs in RT [4, 7]: 99.3% | Stability in plasma, F/T cycle 5 [4, 7]: 88.4% | Stability, Precipitated 4hrs in RT [4, 8]: 94.2% | Stability in plasma, RT 24 hrs [4, 8]: 106% | Stability in plasma, RT 48 hrs [4, 8]: 100% | Stability in plasma, F/T cycle 3 [4, 8]: 97.7% | Stability in plasma, F/T cycle 5 [4, 8]: 94.0% | Stability in plasma, 4°C 24 hrs [4, 8]: 102% | Stability in plasma, 4°C 48 hrs [4, 8]: 103% | Stability in plasma, -80°C 224 days [4, 8]: 103% | Stability, Precipitated 4hrs in RT [4, 9]: 98.0% | Stability in plasma, RT 24 hrs [4, 10]: 105% | Stability in plasma, F/T cycle 3 [4, 9]: 103% | Stability in plasma, F/T cycle 5 [4, 9]: 103% | Stability in plasma, -80°C 224 days [4, 9]: 95.5% | Stability in plasma, 4°C 24 hrs [4, 10]: 113% | Stability, Precipitated 4hrs in RT [4, 11]: 103% | Stability in plasma, RT 24 hrs ([4]; QC1, 2.97 µg/ml, Li-heparin plasma, vs average of four precision and accuracy batches for this anticoagulant): 105% | Stability in plasma, F/T cycle 3 [4, 11]: 95.7% | Stability in plasma, F/T cycle 5 [4, 11]: 99.5% | Stability in plasma, 4°C 24 hrs [4, 11]: 98.3% | Stability in plasma, -80°C 224 days [4, 11]: 96.0% | Stability, Precipitated 4hrs in RT [4, 12]: 91.9% | Stability in plasma, F/T cycle 3 [4, 12]: 91.3% | Stability in plasma, F/T cycle 5 [4, 12]: 97.6% | Stability, Precipitated 4hrs in RT [4, 13]: 96.8% | Stability in plasma, RT 24 hrs ([4]; QC1, 2.97 µg/ml, Na-heparin plasma, vs average of four precision and accuracy batches for this anticoagulant): 103% | Stability in plasma, F/T cycle 3 [4, 13]: 100% | Stability in plasma, F/T cycle 5 [4, 13]: 98.7% | Stability in plasma, 4°C 24 hrs [4, 13]: 109% | Stability in plasma, -80°C 224 days [4, 13]: 93.7% | Stability, Precipitated 4hrs in RT [4, 14]: 94.3% | Stability in plasma, F/T cycle 5 [4, 14]: 98.6% | Stability, Precipitated 4hrs in RT [4, 15]: 101% | Stability in plasma, RT 24 hrs [4, 15]: 99.8% | Stability in plasma, RT 48 hrs [4, 15]: 99.6% | Stability in plasma, F/T cycle 3 [4, 15]: 99.1% | Stability in plasma, F/T cycle 5 [4, 15]: 95.0% | Stability in plasma, 4°C 24 hrs [4, 15]: 101% | Stability in plasma, -80°C 224 days [4, 15]: 109% | Stability, Precipitated 4hrs in RT [4, 16]: 90.9% | Stability in plasma, F/T cycle 3 [4, 16]: 97.9% | Stability in plasma, F/T cycle 5 [4, 16]: 95.5% | Stability in plasma, 4°C 24 hrs [4, 16]: 104% | Stability in plasma, -80°C 224 days [4, 16]: 92.8% | Stability, Precipitated 4hrs in RT [4, 17]: 91.4% | Stability in plasma, RT 24 hrs ([4]; QC3, 155 µg/ml, Li-heparin plasma, vs average of four precision and accuracy batches for this anticoagulant): 101% | Stability in plasma, F/T cycle 3 [4, 17]: 96.1% | Stability in plasma, F/T cycle 5 [4, 17]: 94.2% | Stability in plasma, 4°C 24 hrs [4, 17]: 108% | Stability in plasma, -80°C 224 days [4, 17]: 98.8% | Stability, Precipitated 4hrs in RT [4, 18]: 88.8% | Stability in plasma, F/T cycle 3 [4, 18]: 90.4% | Stability in plasma, F/T cycle 5 [4, 18]: 88.5% | Stability, Precipitated 4hrs in RT [4, 19]: 88.2% | Stability in plasma, F/T cycle 3 [4, 19]: 97.5% | Stability in plasma, F/T cycle 5 [4, 19]: 93.7% | Stability in plasma, 4°C 24 hrs [4, 19]: 106% | Stability in plasma, -80°C 224 days [4, 19]: 94.5% | Stability of protein precipitated samples ([4]; ambient temperature (about 23°C) for 4 h prior to transfer to Phree plate): good stability | Freeze-thaw stability in plasma ([4]; five cycles, QC samples in all anticoagulants, including plasma with moderate haemolysis): good stability | Short-term stability in plasma ([4]; up to 24 h at ambient temperature (about 23°C) and 4°C in all anticoagulants, CPD plasma up to 48 h): confirmed | Degradation ([5]; acid hydrolysis with 0.1 M hydrochloric acid, 30 minutes, ref Shrestha et al. 24): 19.6% | LC-stability ([5]; post-extraction dilution of samples using 0.5% formic acid in water, ref Herrera-Hidalgo et al. 31): 4 h | Stock solution stability ([6]; +4°C for 5 days): above 98% | Stock solution stability ([6]; -80°C for 5 days): above 98% | Stock solution stability ([6]; workbench +24°C for 8 hrs): above 98% | Working solution stability ([6]; -80°C for 5 days): about 98% | Working solution stability ([6]; workbench +24°C for 5 hrs): about 98%
